Test systems include SF-539 CNS; HT29 colon; MDA-MB-435; SF-295 CNS; SK-MEL-2 melanoma; SNB-19 CNS; NCI-H23 lung; IGROV1 ovarian; SK-MEL-28 melanoma; UO-31 renal; UACC-62 melanoma; SF-268 CNS; CCRF-CEM leukemia; MCF7 breast; OVCAR-3 ovarian; COLO 205 colon; M14 melanoma; SNB-75 CNS.
Holding throughout (experiment): DTP human tumour cell line panel, 48 h

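How tested: cells in 96-well plates exposed to compound for 48 hours at five concentrations. At the GI50, growth is halved. Definition used: TGI = concentration required for complete inhibition of growth.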

Consider nine compounds from PubChem BioAssay (NCI).

A word on the TGI: it is the concentration at which net growth stops. One may read the GI50 as the concentration at which growth is held to half of that of the control.

Turning to `O=C1CCN=C(NC(=O)C(F)(F)F)N1CCc1c[nH]c2ccccc12`, the concentration for total growth inhibition (TGI) in the assay with SF-539 CNS, in the assay with HT29 colon, in the assay on MDA-MB-435, with SF-295 CNS, in the assay on SK-MEL-2 melanoma and in the assay with SNB-19 CNS was above 100 µM each time. For the same compound, the TGI with NCI-H23 lung, in the assay on IGROV1 ovarian, in the assay on SK-MEL-28 melanoma, in the assay on UO-31 renal, in the assay on UACC-62 melanoma and in the assay with SF-268 CNS was above 100 µM each time. Also, the TGI in the assay on CCRF-CEM leukemia, in the assay with MCF7 breast, with OVCAR-3 ovarian, with COLO 205 colon and in the assay with M14 melanoma was above 100 µM each time.

`CCOc1ccccc1NC(=O)CSc1nnc(Cc2ccccc2)o1`: the TGI with SF-539 CNS was 53.5 µM; in the assay with HT29 colon, above 100 µM; in the assay on SF-295 CNS, above 100 µM; in the assay on SK-MEL-2 melanoma, 63 µM; with SNB-75 CNS, above 100 µM; in the assay on SNB-19 CNS, 48.7 µM. The TGI with NCI-H23 lung is 52.1 µM; with IGROV1 ovarian, above 100 µM; with SK-MEL-28 melanoma, above 100 µM; in the assay on UO-31 renal it was 52 µM; in the assay on UACC-62 melanoma, 52.6 µM; in the assay on SF-268 CNS, 64.4 µM. The TGI in the assay on CCRF-CEM leukemia was above 100 µM; in the assay on OVCAR-3 ovarian, 32.7 µM; in the assay on COLO 205 colon it was 36.5 µM; in the assay with M14 melanoma, 66.5 µM.

`NC(CCCNc1ccc(O)cc1)C(=O)O` (stereo not drawn): the TGI is 83.5 µM in the assay with SF-539 CNS; above 100 µM with HT29 colon; above 100 µM with SF-295 CNS; above 66.8 µM in the assay with SK-MEL-2 melanoma; above 100 µM in the assay with SNB-75 CNS; above 100 µM in the assay on SNB-19 CNS. The TGI in the assay with NCI-H23 lung is above 100 µM; in the assay on IGROV1 ovarian, 61.5 µM; in the assay on SK-MEL-28 melanoma it was above 100 µM; in the assay with UO-31 renal it was above 100 µM; in the assay with UACC-62 melanoma, 38.2 µM; with SF-268 CNS it was above 62.6 µM. The TGI is above 71.1 µM in the assay on CCRF-CEM leukemia, 35 µM with OVCAR-3 ovarian, above 90.3 µM in the assay with COLO 205 colon and above 66.9 µM in the assay with M14 melanoma.

In the case of `COC(=O)C12OCC34C(CC5C(C)C6=CC(=O)OC6=CC5(C)C3C(O)C1O)OC(=O)C(OC(C)=O)C24` (stereo not drawn), the total growth inhibition concentration (TGI) was 34 µM with SF-539 CNS; 33.9 µM with HT29 colon; 65.7 µM in the assay with SF-295 CNS; 21 µM in the assay with SK-MEL-2 melanoma; 42.1 µM in the assay with SNB-75 CNS; above 91 µM in the assay on SNB-19 CNS. The TGI with NCI-H23 lung was determined as 32.5 µM; in the assay on IGROV1 ovarian it was 65.1 µM; in the assay on SK-MEL-28 melanoma it was 30.1 µM; with UO-31 renal, 46 µM; with UACC-62 melanoma it was 21.9 µM; with SF-268 CNS, 40.1 µM. Moreover, the TGI with CCRF-CEM leukemia is 32.4 µM; in the assay with OVCAR-3 ovarian, 29.4 µM; in the assay with COLO 205 colon, 22.6 µM; with M14 melanoma it was 32.8 µM. In the assay on SNB-75 CNS, the GI50 was 14.7 µM.

Consider `CCOc1cc(/C=N\O)cc(/C=N/O)c1O`, for which the TGI with SF-539 CNS was 61.1 µM; in the assay on HT29 colon it was above 100 µM; in the assay on MDA-MB-435, above 100 µM; with SF-295 CNS it was above 100 µM; in the assay with SK-MEL-2 melanoma, 41 µM; with SNB-75 CNS it was 57.6 µM. Moreover, the TGI in the assay with SNB-19 CNS was above 100 µM; in the assay with NCI-H23 lung, above 100 µM; with SK-MEL-28 melanoma it was above 100 µM; in the assay on UACC-62 melanoma it was above 100 µM; in the assay on SF-268 CNS, 64.1 µM; with CCRF-CEM leukemia, above 100 µM. The TGI with MCF7 breast is 25 µM; in the assay with OVCAR-3 ovarian it was above 100 µM; in the assay on COLO 205 colon, 50.1 µM; with M14 melanoma it was above 100 µM.

On to `COc1cc2c(NCCN(C)C)nc3c4cc5c(cc4ccc3c2cc1OC)OCO5`, for which the TGI in the assay with SF-539 CNS stood at 7.73 µM; in the assay with HT29 colon, 6.56 µM; in the assay with MDA-MB-435, 6.79 µM; in the assay with SF-295 CNS it was 5.7 µM; in the assay with SK-MEL-2 melanoma, 9.94 µM; in the assay on SNB-75 CNS it was 5.39 µM. The TGI in the assay with SNB-19 CNS amounted to 7.15 µM; in the assay on NCI-H23 lung, 6.32 µM; in the assay with IGROV1 ovarian it was 5.82 µM; with SK-MEL-28 melanoma, 9.16 µM; in the assay with UO-31 renal, 7.05 µM; with UACC-62 melanoma, 8.41 µM. Moreover, the TGI in the assay on SF-268 CNS is 8.98 µM; with CCRF-CEM leukemia it was 6.44 µM; with MCF7 breast, 6.07 µM; in the assay on COLO 205 colon, 5.82 µM; in the assay on M14 melanoma it was 7.4 µM.

Take `CC(/C=C/c1ccccc1)=N\N=C(C)\C=C\c1ccccc1`: the TGI in the assay on HT29 colon, in the assay on SF-295 CNS, in the assay with SK-MEL-2 melanoma, in the assay with SNB-75 CNS, with NCI-H23 lung and in the assay with IGROV1 ovarian was above 100 µM in each case. The TGI with SK-MEL-28 melanoma, with SF-268 CNS, with CCRF-CEM leukemia, with OVCAR-3 ovarian and with M14 melanoma was above 100 µM in each case.

In the case of `Cc1ccc(N/N=C/C2=CC(C)(C)C(C#N)(C#N)C(O)=C2C#N)cc1`, the TGI with SF-539 CNS, with HT29 colon, in the assay on MDA-MB-435, in the assay on SF-295 CNS, in the assay with SNB-75 CNS and with SNB-19 CNS was above 100 µM throughout. Besides, the total growth inhibition concentration (TGI) in the assay on NCI-H23 lung, in the assay on IGROV1 ovarian, in the assay with SK-MEL-28 melanoma, in the assay with UO-31 renal, in the assay on UACC-62 melanoma and in the assay on SF-268 CNS was above 100 µM throughout. In addition, the TGI in the assay with CCRF-CEM leukemia, in the assay with MCF7 breast, with OVCAR-3 ovarian, in the assay on COLO 205 colon and in the assay with M14 melanoma was above 100 µM throughout.

As to `O=C(N/C(=C\NC1=NCCS1)C(=O)N1CSC[C@@H]1C(=O)O)c1ccccc1`, the TGI with SF-539 CNS, in the assay with HT29 colon, with MDA-MB-435, in the assay with SF-295 CNS, with SNB-75 CNS and with SNB-19 CNS was above 100 µM in each case. Besides, the TGI with NCI-H23 lung, in the assay on SK-MEL-28 melanoma, in the assay on UO-31 renal, with UACC-62 melanoma, in the assay on SF-268 CNS and in the assay with CCRF-CEM leukemia was above 100 µM throughout. Moreover, the TGI in the assay with MCF7 breast, in the assay with OVCAR-3 ovarian, with COLO 205 colon and with M14 melanoma was above 100 µM in each case.
